| SMILES | melting point [°C] |
| --- | --- |
| CC(SC1COC(c2ccc(C(=O)Nc3ccc(C(F)(F)F)cc3)cc2)OC1)C(O)(Cn1cncn1)c1ccc(F)cc1F (stereo unspecified) | 210 |
| O=C(NC1CCCCC1)OC1CCCCC1 | 77 to 78 |
| Cc1nc(N)c2nc(CO)n(NC3CCCCC3)c2c1C | > 250 |
| Cc1cc(Cl)cc(Cl)c1CNc1c(NC(C)(C)C)c(=O)c1=O | 264 to 268 |
| NCC1Cc2cc(C(F)(F)F)cc(-c3cccc(F)c3)c2O1 (stereo unspecified) | > 250 |
| COCn1ccnc1C(O)(c1ccccc1)c1ccc(F)cc1 (stereo unspecified) | 150 |
| COc1ccc([C@@H]2OC(=O)N[C@@H]2Cc2ccc(C(F)(F)F)cc2)cc1 (racemic) | 164 to 165 |
| CC(=O)OC1CCC2(C)C(CCC3C2CCC2(C)C(N)C(O)CC32)C1 (stereo unspecified) | 192 to 193 |
| COc1ccc2cc(-c3nc(-c4ccncc4)no3)c(=O)oc2c1 | 300 |
| CCOC(=O)C(=O)Nc1ccc(-n2ccnc2)cc1 | 177 to 180 |
| C=CCN1C(=O)N(c2ccc([N+](=O)[O-])c(C(F)(F)F)c2)C(=O)C1(C)C | 105 |
| C[C@@H]1CCCN1CCCOc1ccc2c(c1)CCc1cc(=O)[nH]nc1-2 | 289 to 292 |
| O=C1c2cc3nnn(CCCc4cccc(F)c4)c(=O)c3cc2OC2CCCN12 (stereo unspecified) | 145 to 148 |
| COc1cccc(/C=C/C(=O)N2CC(CCl)c3c2cc([N+](=O)[O-])c2ccccc32)c1 (stereo unspecified) | 200 |
| N#Cc1ccc2c(c1)C(=O)c1cccn1CC2 | 127 to 128 |
| CCCC(=O)NC1CCc2ccccc2C1 (stereo unspecified) | 78 to 81 |
| O=C1NC(=O)c2c1ccc(N1C(=O)C=CC1=O)c2N1C(=O)C=CC1=O | 180 to 200 |
| COc1ccc(C(O)CNCCc2ccc(OC)c(OC)c2C)cc1 (stereo unspecified) | 128 to 129 |
| CCOC(=O)c1cn(Cc2ccc(OCc3nc(-c4ccccc4)oc3C)cc2)nc1OCc1ccc(OCc2nc(-c3ccccc3)oc2C)cc1 | 118 to 119 |
| Cc1ccc(Cl)c(Nc2ccccc2C(=O)NN)c1Cl | 158 to 160 |
| CCCCCS(=O)(=O)NC(=O)CCc1cc(OC(C)C)nn1Cc1ccc(F)cc1F | 107 to 108 |
| N=C(NO)C1(c2ccccc2Br)CC1 | 164 to 167 |
| COC(=O)c1ccc2c(c1)NCc1ccccc1O2 | 125 to 126 |
| COc1cc2c(NC3=CC(=O)C(Cl)=CC3=O)ncnc2cc1OCC1CCCCO1 (stereo unspecified) | 215 to 220 |
| CCOC(=O)c1cc(O)c2nc(C3CC3)n(C)c2c1 | 201 to 202 |
| O=C1CCCc2c1ccc(OCc1ccccc1)c2CBr | 103 to 104 |

| SMILES | melting point [°C] |
| --- | --- |
| C#CCCCCOc1cc(/C=C/C(=O)Nc2ccccc2C(=O)O)ccc1OC | 135 to 137 |
| COC(=O)c1ccc(OC)c(NC(=N)c2ccc(F)cc2F)c1 | 120 |
| Cc1cccc(SCCC(=O)O)c1 | 73 to 75.5 |
| O=C(O)CCCCOc1ccc2oc3ccccc3c(=O)c2c1 | 151 to 152 |
| CC(=O)N[C@H]1CC[C@H](CCN2CCN(c3nc(C)cc4occc34)CC2)CC1 | 208 |
| Cc1nc(CN2CCN(c3cccc(Br)c3)CC2)cs1 | 82 |
| COCC(Cl)C(=O)Nc1c(C(=O)CC(=O)Nc2nccs2)cccc1C(F)(F)F (stereo unspecified) | 190 |
| CCOC(=O)Nn1cccc1C(=O)c1ccccc1F | 78 to 80 |
| COc1ccc(/C=C/C(=O)c2ccc(C(=O)O)cc2)c(-c2cccs2)c1 | 209 to 211 |
| C=CCOc1ccc(C2=NNC(=O)CC2)cc1 | 130 to 132 |
| COc1ccccc1N1CCN(CC(C(=O)NC(C)(C)C)c2ccccc2)CC1 (stereo unspecified) | 160 to 163 |
| Cc1cc(SCc2ccc(OCc3ccccc3)cc2)ccc1OCC(=O)O | 120 to 121 |
| Cc1ccc(C(=O)c2cccc3c2CCC3(C)C(=O)O)cc1 (stereo unspecified) | 99 to 101 |
| O=C(O)C(=O)c1ccc2c(c1)Cc1ccccc1-2 | 135 to 137 |
| O=C(C#Cc1ccc(C(F)(F)F)cc1Cl)Nc1ccc(OCCn2cccn2)cc1 | 120 to 125 |
| Cc1nn(-c2c(Cl)cc(C(F)(F)F)cc2Cl)nc1SC#N | 115 to 117 |
| COc1ccc(C(=O)Nc2ccccc2)cc1NCc1cccc(C#N)c1 | 172 to 174 |
| O=C(OCc1ccc(F)cc1)c1cccc(C(=O)OCc2ccc(F)cc2)c1 | 78 to 79 |
| COC(=O)c1cc(-c2ccc(-c3ccccc3)cc2)nn(CC(C)C)c1=O | 186 to 195 |
| C=C(C)C(=O)NCCCC(=O)Nc1cc(Cl)c(C)c(Cl)c1O | 119 to 121 |
| CN(C)c1nc(N(C)C)c2ncn(Cc3ccccc3F)c2n1 | 127 |
| c1ccc(CCNc2nc3ccccc3c3[nH]c(C4CCCC4)nc23)cc1 | 95 to 97 |
| Cc1cc(NCc2ccc(Cl)cc2)nc(SCC#N)n1 | 99 to 101 |
| O=P(O)(O)C(O)C(O)P(=O)(O)O (stereo unspecified) | 209 to 211 |
| COc1ccc(Nc2cccc3c2C(=O)N(C2CCC(=O)NC2=O)C3=O)c(Oc2ccccc2)c1 (stereo unspecified) | 142 to 144 |
